According to PubChem BioAssay AID1259411 (Chemical Carcinogenesis Research Information System (CCRIS), 2018):
Active and inactive are the calls of the source. How the calls were made is not given here.

Test system: rodent carcinogenicity bioassays, tumor incidence
Test: CCRIS carcinogenicity studies
Summary of the method: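 NCI-built, expert-reviewed records of carcinogenicity and related test outcomes (mutagenicity, tumor promotion/inhibition) compiled from published and report sources, historical span 1985-2011, not updated.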

Cn1c(CCCC(=O)O)nc2cc(N(CCCl)CCCl)ccc21
carcinogen call (Species: MOUSE, Strain/Sex: AB/JENA/FEMALE, Route: INTRAPERITONEAL, Dose: 0, 12.5, 25 MG/KG IN 2 ML SALINE 1/D FOR 4 D FOR A TOTAL DOSE OF 0, 50, 100 MG/KG, Dose: 0, 12.5, 25 MG/KG IN 2 ML SALINE 1/D FOR 4 D FOR A TOTAL DOSE OF 0, 50, 100 MG/KG, Tumor Site: Type of Lesion: PERITONEUM: SARCOMA): active; positive | carcinogen call (Species: MOUSE, Strain/Sex: AB/JENA/FEMALE, Route: ORAL, Dose: 0, 62.5 MG/KG IN 0.25 ML WATER 1/D FOR 4 D FOR A TOTAL DOSE OF 0, 250 MG/KG, Dose: 0, 62.5 MG/KG IN 0.25 ML WATER 1/D FOR 4 D FOR A TOTAL DOSE OF 0, 250 MG/KG, Tumor Site: Type of Lesion: LUNG: ADENOMA): active; positive

Cc1cc(O)c2c(c1)C(=O)c1cc(O)cc(O)c1C2=O
carcinogen call (Species: MOUSE, Strain/Sex: B6C3F1/FEMALE, Route: ORAL, Dose: 0, 312, 625, 1250 PPM IN DIET FOR 105 WK (STUDY DURATION: 105 WK), Dose: 0, 312, 625, 1250 PPM IN DIET FOR 105 WK (STUDY DURATION: 105 WK)): inactive; negative | carcinogen call (Species: MOUSE, Strain/Sex: B6C3F1/MALE, Route: ORAL, Dose: 0, 160, 312, 625 PPM IN DIET FOR 105 WK (STUDY DURATION: 105 WK), Dose: 0, 160, 312, 625 PPM IN DIET FOR 105 WK (STUDY DURATION: 105 WK), Tumor Site: Type of Lesion: KIDNEY: RENAL TUBULE ADENOMA, RENAL TUBULE CARCINOMA, RENAL TUBULE ADENOMA OR CARCINOMA): equivocal | carcinogen call (Species: RAT, Strain/Sex: F344/FEMALE, Route: ORAL, Dose: 0, 280, 830, 2500 PPM IN DIET FOR 105 WK (STUDY DURATION: 105 WK), Dose: 0, 280, 830, 2500 PPM IN DIET FOR 105 WK (STUDY DURATION: 105 WK), Tumor Site: Type of Lesion: ZYMBAL GLAND: CARCINOMA): equivocal | carcinogen call (Species: RAT, Strain/Sex: F344/MALE, Route: ORAL, Dose: 0, 280, 830, 2500 PPM IN DIET FOR 105 WK (STUDY DURATION: 105 WK), Dose: 0, 280, 830, 2500 PPM IN DIET FOR 105 WK (STUDY DURATION: 105 WK)): inactive; negative

OC[C@@H](O)[C@@H](O)[C@H](O)[C@H](O)CO[C@H]1O[C@H](CO)[C@@H](O)[C@H](O)[C@H]1O
carcinogen call (Species: MOUSE, Strain/Sex: SWISS/FEMALE, Route: ORAL, Dose: 0, 2.5, 5, 10% IN DIET FOR LIFE (PARENTS FED DIETS BEFORE AND AFTER PREGNANCY AND DURING LACTATION) (STUDY DURATION: 104, Dose: 0, 2.5, 5, 10% IN DIET FOR LIFE (PARENTS FED DIETS BEFORE AND AFTER PREGNANCY AND DURING LACTATION) (STUDY DURATION: 104): inactive; negative | carcinogen call (Species: MOUSE, Strain/Sex: SWISS/MALE, Route: ORAL, Dose: 0, 2.5, 5, 10% IN DIET FOR LIFE (PARENTS FED DIETS BEFORE AND AFTER PREGNANCY AND DURING LACTATION) (STUDY DURATION: 94, Dose: 0, 2.5, 5, 10% IN DIET FOR LIFE (PARENTS FED DIETS BEFORE AND AFTER PREGNANCY AND DURING LACTATION) (STUDY DURATION: 94): inactive; negative | carcinogen call (Species: RAT, Strain/Sex: WISTAR/FEMALE, Route: ORAL, Dose: 0, 2.5, 5, 10% IN DIET FOR LIFE (PARENTS FED DIETS BEFORE AND AFTER PREGNANCY AND DURING LACTATION) (STUDY DURATION: 130, Dose: 0, 2.5, 5, 10% IN DIET FOR LIFE (PARENTS FED DIETS BEFORE AND AFTER PREGNANCY AND DURING LACTATION) (STUDY DURATION: 130): inactive; negative | carcinogen call (Species: RAT, Strain/Sex: WISTAR/MALE, Route: ORAL, Dose: 0, 2.5, 5, 10% IN DIET FOR LIFE (PARENTS FED DIETS BEFORE AND AFTER PREGNANCY AND DURING LACTATION) (STUDY DURATION: 128, Dose: 0, 2.5, 5, 10% IN DIET FOR LIFE (PARENTS FED DIETS BEFORE AND AFTER PREGNANCY AND DURING LACTATION) (STUDY DURATION: 128): inactive; negative

C1COCCO1
carcinogen call (Species: MOUSE, Strain/Sex: B6C3F1/FEMALE, Route: ORAL, Dose: 0, 0.5, 1.0% (V/V) IN DRINKING WATER, Dose: 0, 0.5, 1.0% (V/V) IN DRINKING WATER, Tumor Site: Type of Lesion: LIVER: HEPATOCELLULAR CARCINOMA OR ADENOMA): active; positive | carcinogen call (Species: MOUSE, Strain/Sex: B6C3F1/MALE, Route: ORAL, Dose: 0, 0.5, 1.0% (V/V) IN DRINKING WATER, Dose: 0, 0.5, 1.0% (V/V) IN DRINKING WATER, Tumor Site: Type of Lesion: LIVER: HEPATOCELLULAR CARCINOMA OR ADENOMA): active; positive | carcinogen call (Species: MOUSE, Strain/Sex: BDF1/FEMALE, Route: ORAL, Dose: 0, 500, 2000, 8000 PPM IN DRINKING WATER FOR 104 WK (STUDY DURATION: 105 WK), Dose: 0, 500, 2000, 8000 PPM IN DRINKING WATER FOR 104 WK (STUDY DURATION: 105 WK), Tumor Site: Type of Lesion: LIVER: HEPATOCELLULAR ADENOMA, HEPATOCELLULAR CARCINOMA): active; positive | carcinogen call (Species: MOUSE, Strain/Sex: BDF1/MALE, Route: ORAL, Dose: 0, 500, 2000, 8000 PPM IN DRINKING WATER FOR 104 WK (STUDY DURATION: 105 WK), Dose: 0, 500, 2000, 8000 PPM IN DRINKING WATER FOR 104 WK (STUDY DURATION: 105 WK), Tumor Site: Type of Lesion: LIVER: HEPATOCELLULAR ADENOMA, HEPATOCELLULAR CARCINOMA): active; positive | carcinogen call (Species: RAT, Strain/Sex: F344/FEMALE, Route: ORAL, Dose: 0, 200, 1000, 5000 PPM IN DRINKING WATER FOR 104 WK (STUDY DURATION: 105 WK), Dose: 0, 200, 1000, 5000 PPM IN DRINKING WATER FOR 104 WK (STUDY DURATION: 105 WK), Tumor Site: Type of Lesion: NASAL CAVITY: TUMOR, LIVER: HEPATOCELLULAR ADENOMA, HEPATOCELLULAR CARCINOMA, MAMMARY GLAND: TUMOR, Tumor Site: Type of Lesion: NASAL CAVITY: TUMOR, LIVER: HEPATOCELLULAR ADENOMA, HEPATOCELLULAR CARCINOMA, MAMMARY GLAND: TUMOR): active; positive | carcinogen call (Species: RAT, Strain/Sex: F344/MALE, Route: ORAL, Dose: 0, 200, 1000, 5000 PPM IN DRINKING WATER FOR 104 WK (STUDY DURATION: 105 WK), Dose: 0, 200, 1000, 5000 PPM IN DRINKING WATER FOR 104 WK (STUDY DURATION: 105 WK), Tumor Site: Type of Lesion: NASAL CAVITY: TUMOR, LIVER: HEPATOCELLULAR ADENOMA, HEPATOCELLULAR CARCINOMA, PERITONEUM: MESOTHELIOMA, SUBCUTIS: FIBROM, Tumor Site: Type of Lesion: NASAL CAVITY: TUMOR, LIVER: HEPATOCELLULAR ADENOMA, HEPATOCELLULAR CARCINOMA, PERITONEUM: MESOTHELIOMA, SUBCUTIS: FIBROM): active; positive | carcinogen call (Species: RAT, Strain/Sex: OSBORNE-MENDEL/FEMALE, Route: ORAL, Dose: 0, 0.5, 1.0% (V/V) IN DRINKING WATER, Dose: 0, 0.5, 1.0% (V/V) IN DRINKING WATER, Tumor Site: Type of Lesion: NASAL TURBINATES: SQUAMOUS CELL CARCINOMA, LIVER: HEPATOCELLULAR ADENOMA): active; positive | carcinogen call (Species: RAT, Strain/Sex: OSBORNE-MENDEL/MALE, Route: ORAL, Dose: 0, 0.5, 1.0% (V/V) IN DRINKING WATER, Dose: 0, 0.5, 1.0% (V/V) IN DRINKING WATER, Tumor Site: Type of Lesion: NASAL TURBINATES: SQUAMOUS CELL CARCINOMA): active; positive | carcinogen call (Species: RAT, Strain/Sex: SHERMAN/MALE,FEMALE, Route: ORAL, Dose: 0.01, 0.1, 1.0% IN DRINKING WATER FOR UP TO 716 D, Dose: 0.01, 0.1, 1.0% IN DRINKING WATER FOR UP TO 716 D, Tumor Site: Type of Lesion: LIVER: HEPATOCELLULAR CARCINOMA, CHOLANGIOMA): active; positive | carcinogen call (Species: RAT, Strain/Sex: SPRAGUE-DAWLEY/MALE, Route: ORAL, Dose: 0.75, 1.0, 1.4, 1.8% IN DRINKING WATER FOR 13 MO, Dose: 0.75, 1.0, 1.4, 1.8% IN DRINKING WATER FOR 13 MO, Tumor Site: Type of Lesion: NASAL CAVITY: SQUAMOUS CELL CARCINOMA, ADENOCARCINOMA, LIVER: HEPATOMA, HEPATOCELLULAR CARCINOMA): active; positive | carcinogen call (Species: RAT, Strain/Sex: WISTAR/MALE, Route: ORAL, Dose: 1% IN DRINKING WATER FOR 63 WK, Tumor Site: Type of Lesion: LIVER: NEOPLASTIC NODULE, HEPATOCELLULAR CARCINOMA): active; positive

Oc1ccc(-c2cc(Cl)c(Cl)c(Cl)c2Cl)cc1
carcinogen call (Species: MOUSE, Strain/Sex: BALB/CCRGL/FEMALE, Route: SUBCUTANEOUS, Dose: 40 UG DAILY FOR 5 D BEGINNING 16 HR AFTER BIRTH (STUDY DURATION: 20 MO), Tumor Site: Type of Lesion: MAMMARY GLAND: CARCINOMA (4/30), CERVICOVAGINAL TRACT: CARCINOMA (4/30)): active; positive | carcinogen call (Species: MOUSE, Strain/Sex: BALB/CCRGL/FEMALE, Route: SUBCUTANEOUS, Dose: 400 UG DAILY FOR 5 D BEGINNING 16 HR AFTER BIRTH (STUDY DURATION: 20 MO), Tumor Site: Type of Lesion: CERVICOVAGINAL TRACT: CARCINOMA (5/24)): active; positive
